Experimental findings from publication PMC4373884, “Crystal Structures of the Kinase Domain of the Sulfate-Activating Complex in Mycobacterium tuberculosis” (PLoS ONE, 2015) are described below.

Assay [1] deals with T1, CysC (APS kinase domain of CysN) (Mycobacterium tuberculosis, UniProt P9WNM5).
T1 construct: gene cysNC

Assay [2] deals with T1, CysC (APS kinase domain of CysN). The source holds these as a separate data set.

The structures appear in SMILES notation.

T1 sequence (P9WNM5 424-612): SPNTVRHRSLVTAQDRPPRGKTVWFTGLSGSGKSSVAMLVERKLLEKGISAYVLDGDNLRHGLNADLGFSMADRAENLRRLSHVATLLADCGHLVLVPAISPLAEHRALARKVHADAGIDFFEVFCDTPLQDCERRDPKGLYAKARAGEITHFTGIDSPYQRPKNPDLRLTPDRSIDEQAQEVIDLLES

Consider `Nc1ncnc2c1ncn2[C@@H]1O[C@H](COP(=O)(O)OP(=O)(O)O)[C@@H](O)[C@H]1O` [ADP], for which the X-ray crystal structure entry in assay [1] was “The electron density maps clearly show the presence of one molecule of ADP per subunit”.

In the case of `Nc1ncnc2c1ncn2[C@@H]1O[C@H](COP(=O)(O)OP(=O)(O)NP(=O)(O)O)[C@@H](O)[C@H]1O` [AMP-PNP], the X-ray crystal structure entry in assay [1] was “The bound ligands AMP-PNP and APS are well defined in electron density”.

Consider `Nc1ncnc2c1ncn2[C@@H]1O[C@H](COP(=O)(O)OP(=O)(O)OP(=O)(O)O)[C@@H](O)[C@H]1O` [ATP], for which the “ADP-Glo luminescence kinase assay” value in assay [2] was “The CysC domain used in this study is catalytically active and shows APS kinase activity”.
